{"source": "patent US9277697B2", "about": "“Compositions and methods for anti-transpiration in plants” (Innovation Hammer, LLC, priority 2004, dated 2016)", "key": {"[1]": {"tested_on": "pectic cell", "assay": "Penetration and integration of saccharides"}, "[2]": {"tested_on": "Lantana", "assay": "Growth promotion with iron-Mac formulations versus component controls", "assay_type": "in vivo", "conditions": "12 ppm iron-Mac, 12 ppm Fe—Na2EDTA, 50 mM (NH4)2SO4", "protocol": "(§1) Dilute the mixture in an appropriate volume of water. Mix until the compounds are dissolved. Spray the resulting formulation on the plant foliage (e.g. New Guinea Impatiens) so that the foliage glistens. Allow a day for leaf uptake. The following results are of growth promotion using iron-Mac formulations of the invention versus conventionally cultured controls and with identical quantities of each of the components as separate controls."}, "[3]": {"tested_on": "Cabbage", "assay": "Growth promotion with iron-Mac formulations versus component controls", "assay_type": "in vivo", "conditions": "12 ppm iron-Mac, 12 ppm Fe—Na2EDTA, 50 mM (NH4)2SO4", "protocol": "as §1"}, "[4]": {"tested_on": "Rice", "assay": "Growth promotion with iron-Mac formulations versus component controls", "assay_type": "in vivo", "conditions": "12 ppm iron-Mac, 12 ppm Fe—Na2EDTA, 50 mM (NH4)2SO4", "protocol": "as §1"}, "[5]": {"tested_on": "Rice, Lantana, Cabbage", "assay": "Yield with iron-Mac formulations versus component controls, all plant types", "assay_type": "in vivo", "conditions": "for all plant types; 12 ppm Fe—Na2EDTA, 50 mM (NH4)2SO4", "protocol": "as §1"}, "[6]": {"tested_on": "weeds", "assay": "Weed kill by tank-mixes of saccharides, herbicide and ammonium sulfate", "assay_type": "in vivo", "conditions": "1 lb/acre glyphosate; additive 1:1 methyl glucosides to organic ammonium sulfates", "source_text": "The inherent benefit of the reduction of productivity observed by surface coatings was exploited by utilizing their weakening effects as additives to enhance weed kill of pesticides. In sets of replicated trials, weeds were given tank-mixes with saccharides, herbicides, and ammonium sulfate fertilizer. Perhaps the most widely used herbicide, N-phosphonomethylglycine (PO(OH)2CH2.2NHCH2COOH), is commonly referred to as glyphosate, and is most abundantly found formulated as a water-soluble mono-isopropylamine (IPA) salt or sodium salt, hereinafter referred to as glyphosate, meant to include salts, thereof. The preferred formulation of the present invention is a blend of 4 lbs./acre to 5 lbs./acre glyphosate; 10 lbs./acre to 100 lbs./acre of 60% to 100% methyl glucosides in a 1:1 to 3:1 blend with ammonium sulfate; and with optional surfactant. After foliar application, inhibitory methods yielded approximately 50% to 85% improved response of weeds to herbicide and additives over positive controls. […] An additional benefit is the reversal of the weakening effect of treatments to plants that have been genetically engineered for herbicide resistance. After treatment with a tank mix of herbicide and Series 1 components, a Series 2 formulation of Ca^2+-chelators may be sprayed over a Series 1 treatment once the herbicide has killed its targeted weeds. […]"}}, "data": [{"molecule": "CCCCCCCCCCCCCCO[C@@H]1O[C@H](CO)[C@@H](O[C@@H]2O[C@@H](CO)[C@H](O)[C@@H](O)[C@@H]2O)[C@H](O)[C@H]1O", "note": "(stereo in doubt) [tetradecylmaltoside]", "values": [{"measurement": "penetration and integration", "setting": "[1]", "value": "neither penetrate nor integrate"}]}, {"molecule": "N.N.O=S(=O)(O)O", "note": "[(NH4)2SO4]", "values": [{"measurement": "Result (growth promotion)", "setting": "[2]", "value": "retarded"}, {"measurement": "Result (growth promotion)", "setting": "[3]", "value": "retarded"}, {"measurement": "Result (growth promotion)", "setting": "[4]", "value": "retarded"}, {"measurement": "yield reduction", "setting": "[5]", "value": 5, "unit": "% reduction"}]}, {"molecule": "O=C(O)CNCP(=O)(O)O", "note": "[glyphosate, N-phosphonomethylglycine]", "values": [{"measurement": "lethal dose response", "setting": "[6]", "value": 100, "unit": "%"}]}, {"molecule": "CC(=O)OC[C@H]1OC(OC(C)=O)[C@H](OC(C)=O)[C@@H](OC(C)=O)[C@H]1OC(C)=O", "note": "(some centres unmarked) [pentaace tylgalactopyranose]", "values": [{"measurement": "penetration and integration", "setting": "[1]", "value": "neither penetrate nor integrate"}]}, {"molecule": "CC(=O)OC[C@H]1OC(OC(C)=O)[C@H](OC(C)=O)[C@@H](OC(C)=O)[C@@H]1OC(C)=O", "note": "(some centres unmarked) [pentaace tylglucopyranose]", "values": [{"measurement": "penetration and integration", "setting": "[1]", "value": "neither penetrate nor integrate"}]}, {"molecule": "CC(=O)OC[C@H]1OC(OC(C)=O)[C@@H](OC(C)=O)[C@@H](OC(C)=O)[C@@H]1OC(C)=O", "note": "(some centres unmarked) [pentaacetylmanno-pyranose]", "values": [{"measurement": "penetration and integration", "setting": "[1]", "value": "neither penetrate nor integrate"}]}, {"molecule": "CC(=O)OC[C@H]1OC(Oc2ccccc2)[C@H](OC(C)=O)[C@@H](OC(C)=O)[C@@H]1OC(C)=O", "note": "(some centres unmarked) [phenyltetraacetylglucoside]", "values": [{"measurement": "penetration and integration", "setting": "[1]", "value": "neither penetrate nor integrate"}]}, {"molecule": "Fe—Na2EDTA", "values": [{"measurement": "Result (growth promotion)", "setting": "[2]", "value": "phytotoxic"}, {"measurement": "Result (growth promotion)", "setting": "[3]", "value": "phytotoxic"}, {"measurement": "Result (growth promotion)", "setting": "[4]", "value": "phytotoxic"}, {"measurement": "yield reduction", "setting": "[5]", "value": 5, "unit": "% reduction"}]}]}
